Experimental data from US10689383B2, “Optionally fused heterocyclyl-substituted derivatives of pyrimidine useful for the treatment of inflammatory, metabolic, oncologic and autoimmune diseases” (NUEVOLUTION A/S, priority 2014, dated 2020).

Assays:
[1] = biological target: T1, human RORγt (Ligand Binding Domain) (Homo sapiens, UniProt P51449); test: Fluorescence Polarization (FP) Assay; settings: Fluorescence Polarization (FP) Assay; values given as upper bounds of activity ranges; read-out: FP activity range
T1 construct: purchased Crelux (Planegg, Germany) batch no PC5032-1
T1 sequence (P51449 269-508 limits assumed): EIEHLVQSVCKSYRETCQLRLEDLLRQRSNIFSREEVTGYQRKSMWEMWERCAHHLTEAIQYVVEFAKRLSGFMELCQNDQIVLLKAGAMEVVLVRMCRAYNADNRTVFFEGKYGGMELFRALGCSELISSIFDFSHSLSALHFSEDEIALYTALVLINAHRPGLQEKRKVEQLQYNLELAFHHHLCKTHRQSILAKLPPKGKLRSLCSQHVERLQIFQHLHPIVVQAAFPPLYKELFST
Outline: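 In vitro FP binding assay monitoring ligand binding within the ligand binding pocket. Probe is a TAMRA-labelled RORγt ligand (MW 910 g/mole); DMSO served as negative control.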

Th17 cells = test: Th17 Assay (IL-17 levels in supernatants by ELISA); format: cell-based; settings: Homo sapiens; read-out: Th17 activity range @ 1 μM (% inhibition)
Experimental: The activity of the compounds was evaluated using a Fluorescence Polarization (FP) Assay and, in most cases, a Th17 Assay and/or RORγ Reporter assay (also referred to as Gal4 assay). The FP assay is an in vitro assay monitoring binding within the ligand binding pocket. The RORγ and the Th17 assays are both cell-based assays monitoring functional activity of the compound assayed.
Human peripheral blood mononuclear cells (PBMCs) were isolated from buffy coats of healthy human volunteers using the Ficoll paque PLUS kit (GE Healthcare, cat no 17-1440-02), as instructed by the manufacturer. Naive CD4+ T cells were isolated with Naive CD4+ T cell kit, human (Milteny Biotec, cat no 130-094-131). The following modifications were made to the manufacturer's protocol: 1) Incubation with Biotin-Antibody Cocktail and Anti-Biotin MicroBeads was prolonged to 30 minutes, and 2) Cells were washed with 40 mL of Miltenyi buffer. Differentiation of Th17 cells in anti-CD3 (BD Pharmingen, 5 μg/ml) coated 96-well plates (400,000 cells/well, 160 μl RPMI 1640+10% Fetal Bovine Serum) containing 5 μg/ml anti-CD28 (BD Pharmingen), 10 ng/ml IL-2 (R&D Systems), 2.5 ng/ml TGFβ-1 (R&D Systems), 20 ng/ml IL-1β (R&D Systems), 20 ng/ml IL-6 (R&D Systems), 30 ng/ml IL-23 (R&D Systems), 2.5 μg/ml anti-IL-4 (R&D Systems) and 1 μg/ml anti-IFNγ (R&D Systems) and with test compound during the entire differentiation (or vehicle, 0.1% DMSO for control). Test compounds were tested in triplicates, diluted 1000-fold in medium (final DMSO concentration is 0.1%). Incubated for seven days at 37° C., 5% CO2, 95% humidity, and 2-fluoro-4′-[[4-(4-pyridinylmethyl)-1-piperazinyl]methyl]-α,α-bis(trifluoromethyl)-[1,1′-biphenyl]-4-methanol (SR2211 Calbiochem, Cat. No. 557353) was used as positive control. As negative control, cells were differentiated into Th0 using 5 μg/ml anti-CD28 (BD Pharmingen), 10 ng/ml IL-2 (R&D Systems), 2 μg/ml anti-IL4 (R&D Systems) and 2 μg/ml anti-IFNγ (R&D Systems) are negative control. IL-17 levels in supernatants were measured with ELISA (R&D Systems).

[2] = biological target: T2, yeast Gal4-DNA binding domain fused to the ligand binding domain of human RORγ (Homo sapiens, UniProt P51449); test: RORγ Reporter Assay (Gal4); format: cell-based; settings: values given as lower bounds of ranges; for Gal4 activity range @ 0.1 μM (% inhibition): RORγ Reporter Assay (Gal4) at 0.1 μM; for Gal4 activity range @ 1 μM (% inhibition): RORγ Reporter Assay (Gal4) at 1 μM
T2 construct: host or cells: HEK293t
T2 sequence (P51449 269-508 limits assumed): T1 sequence (P51449 269-508 limits assumed)
Outline: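 HEK293t reporter cells expressing the hybrid, with Gal4-UAS-driven firefly luciferase, treated in triplicate with compound at 1,000 nM and 100 nM (0.1% DMSO) in medium with 10% charcoal-stripped FBS for 24 h at 37 °C. Luminescence read; percent reduction of RLU calculated relative to vehicle.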

female C57BL/6 mice = test: Experimental Autoimmune Encephalomyelitis (EAE) Study; format: in vivo; settings: 10 and 30 mg/kg, orally twice daily, 25 days
male DBA/1J mice = test: Collagen-Induced Arthritis (CIA) Study; format: in vivo; settings: orally twice daily
Experimental: Collagen-induced arthritis is an animal model of rheumatoid arthritis used to evaluate the efficacy of test compounds. CIA was induced at Washington Biotechnology Inc. (Baltimore) in male DBA/1J mice (Jackson Laboratories) by subcutaneous injection at the base of the tail with 50 μl of a bovine collagen/complete Freund's adjuvant emulsion. After 21 days, the mice were further boosted by a further subcutaneous injection of 50 μl of a collagen/incomplete Freund's adjuvant emulsion. For treatment, compound or vehicle (2% DMSO, 10% HP-β-CD in MilliQ water) was given orally twice daily at various doses selected from 3, 10, 30 mg/kg, beginning at the day of CIA induction (Prophylactic setting), or after disease initiation (at day 27, therapeutic setting). Treatment lasted until day 41, and the animals were scored three times weekly. Each paw was scored and the sum of all four scores was recorded as the Arthritic Index (AI). The maximum possible AI was 16.0=no visible effects of arthritis; 1=edema and/or erythema of one digit; 2=edema and/or erythema of 2 joints; 3=edema and/or erythema of more than 2 joints; 4=severe arthritis of the entire paw and digits including limb deformation and ankylosis of the joint. The Arthritis Index for each treatment can be expressed as the mean score for each treatment group+/−S.E.M.

SMILES	IC50 [1] [nM]	inhibition at 1 µM (Th17 cells) [%]	Gal4 activity range @ 0.1 μM (% inhibition) [2] [% inhibition]	Gal4 activity range @ 1 μM (% inhibition) [2] [% inhibition]	EAE clinical score (female C57BL/6 mice)	onset of EAE (female C57BL/6 mice)	CIA disease development, therapeutic setting (male DBA/1J mice; 30 mg/kg, from day 27)	CIA disease severity, prophylactic setting (male DBA/1J mice; 10 and 30 mg/kg, from day of CIA induction)
O=C(O)Cc1ccc(CNc2ncnc(N3CCOCC3c3ccc(OC(F)(F)F)cc3)c2F)cc1 (stereo not drawn) [Example 91, 2-[4-[[[5-fluoro-6-[3-[4-(trifluoromethoxy)phenyl]morpholin-4-yl]pyrimidin-4-yl]amino]methyl]phenyl]acetic acid]	< 500	> 80	>20	>80	–	–	–	–
Fc1c(NCc2ccc(Cn3ccnc3)cc2)ncnc1N1CCCC1c1ccc(C(F)(F)F)cc1 (stereo not drawn) [Example 94, 5-fluoro-N-[[4-(imidazol-1-ylmethyl)phenyl]methyl]-6-[2-[4-(trifluoromethyl)phenyl]pyrrolidin-1-yl]pyrimidin-4-amine]	< 500	> 80	>80	>80	–	–	–	–
NC(=O)Cc1ccc(CNc2ncnc(N3CCOC[C@@H]3c3ccc(C(F)(F)F)cc3)c2F)cc1 [Example 204, 2-[4-[[[5-fluoro-6-[(3S)-3-[4-(trifluoromethyl)phenyl]morpholin-4-yl]pyrimidin-4-yl]amino]methyl]phenyl]acetamide]	< 500	–	>50	>80	lower clinical score	delay onset	arrest disease development	significantly reduce disease severity
